In patent US20140038281A1, “SYSTEM FOR CARGO DELIVERY INTO THE CELLS” (CEPEP III AB, priority 2011, published 2014):

Test system: Hela pLuc 705 cells
Assay: Toxicity measurements (MTS cell proliferation assay)
Assay type: cell-based
Details: peptide:2'-OMe ON complexes, 200 nM ON, 24 hours, most effective concentrations (FIG. 6)
Description: Cell proliferation was studied with CellTiter 96® A Queous Non-Radioactive Cell Proliferation Assay (MTS) according to the manufacturer's instructions. Briefly, 10000 Hela pLuc 705 cells per well were seeded 1 day prior to experiment on a 96-well plate in complete DMEM. Cells were treated with peptide: 2′-OMe ON complexes at four different molar ratios (5:1, 7:1, 10:1 and 20:1) for 4 hours in serum-free medium, followed by the addition of 10% serum containing medium and incubated for additional 20 hours. MTS was added according to the manufacturer's general protocol (Promega Biotech AB, Sweden). The conversion of MTS into aqueous, soluble formazan is accomplished by dehydrogenase enzymes found in metabolically active cells. The absorbance of formazan product was measured at 490 nm, which is directly proportional to the number of living cells in culture. Absorbance was measured on Tecan Sunrise microplate absorbance reader (Tecan Group Ltd., Switzerland) and the percentage of viable cells was determined using GraphPad Prism software 5.0 (Graphpad Software, CA, USA).

## CCCCCCCCCCCCCCCCCC(=O)N[C@@H](C)C(=O)NCC(=O)N[C@@H](Cc1ccc(OP(=O)(O)O)cc1)C(=O)N[C@@H](CC(C)C)C(=O)N[C@@H](CC(C)C)C(=O)NCC(=O)N[C@@H](CCCCN)C(=O)N[C@H](C(=O)N[C@@H](CC(N)=O)C(=O)N[C@@H](CC(C)C)C(=O)N[C@@H](CCCCN)C(=O)N[C@@H](C)C(=O)N[C@@H](CC(C)C)C(=O)N[C@@H](C)C(=O)N[C@@H](C)C(=O)N[C@@H](CC(C)C)C(=O)N[C@@H](C)C(=O)N[C@@H](CCCCN)C(=O)N[C@@H](CCCCN)C(=O)N[C@H](C(=O)N[C@@H](CC(C)C)C(N)=O)[C@@H](C)CC)[C@@H](C)O [NickFect 1, Stearyl-AGY(PO3)LLGKTNLKALAALAKKIL-NH2]
  toxicity (cell viability by MTS): not toxic

## CCCCCCCCCCCCCCCCCC(=O)N[C@@H](C)C(=O)NCC(=O)N[C@@H](Cc1ccc(O)cc1)C(=O)N[C@@H](CC(C)C)C(=O)N[C@@H](CC(C)C)C(=O)NCC(=O)N[C@@H](CCCCN)C(=O)N[C@H](C(=O)N[C@@H](CC(N)=O)C(=O)N[C@@H](CC(C)C)C(=O)N[C@@H](CCCCN)C(=O)N[C@@H](C)C(=O)N[C@@H](CC(C)C)C(=O)N[C@@H](C)C(=O)N[C@@H](C)C(=O)N[C@@H](CC(C)C)C(=O)N[C@@H](C)C(=O)N[C@@H](CCCCN)C(=O)N[C@@H](CCCCN)C(=O)N[C@H](C(=O)N[C@@H](CC(C)C)C(N)=O)[C@@H](C)CC)[C@@H](C)OP(=O)(O)O [NickFect 2, Stearyl-AGYLLGKT(PO3)NLKALAALAKKIL-NH2]
  toxicity (cell viability by MTS): not toxic
